These are literature values, as cited in publication PMC2234480 (The Journal of General Physiology, 2003).

The test system of the series is CLC-0. The note with it: ref Pusch et al., 2001.

`CCC(Oc1ccc(Cl)cc1)C(=O)O` (centres unmarked) [CPB, p-chlorophenoxy-butyric acid]: under “5 mM CPB, V > 40 mV”, the “relief of block at positive voltages” value is reported as “complete unblock”. The “affinity for closed channels” value (model from macroscopic and single-channel analysis) was “submillimolar affinity”.
